Legend:
[1] = test system: TMZ-resistant glioma cells (U87MG-R); experiment: Orthotopic TMZ-resistant brain tumor mouse model (survival, tumor size)
Procedure: TMZ-resistant glioma cells (U87MG-R) were cultured at 37° C. in a humidified 5% CO2 atmosphere in Dulbecco's Modified Eagle Medium (DMEM) supplemented with 10% fetal bovine serum and 100 ug/mL penicillin/streptomycin. NOD-SCID male mice (8-week-old) were purchased from BioLASCO Taiwan Co. Ltd. For intracranial transplantation, an experimental procedure was performed under sterile conditions. For TMZ-resistant glioblastoma transplantation, a skull burr hole was created in the right frontal brain area. Cells (2×10^5, or five microliters of TMZ-resistant glioma cell suspension (U87MG-R, 6×10^5 cells/5 μL) were injected into the cortex at a depth of 3 mm using stereotactic guidance and a microprocessor single syringe (Harvard Apparatus, Holliston, MA, USA).
(§1) The administration frequency was twice per week until the end of the study. DTX, CTX and PBS were intravenously (IV) injected and TMZ was intraperitoneally (IP) injected into mice. To assess overall survival, mice were monitored up to the point of spontaneous death or approaching moribund status.
Body weight and survival time of animals were monitored up to the point of spontaneous death.

[2] = Toxicity/tolerability in mice transplanted with TMZ-resistant brain tumors; conditions: for Survival of mice to the end of the testing period: 10 or 20 mg/kg IV with TMZ 10 mg/kg, testing period (15)/19 days; for Toxicity (body weight decrease, low survival rate): dose of 10 mg/kg or above IV, with TMZ 10 mg/kg IP
Source text: (§2) To evaluate the toxicity of DTX and CTX and the efficacy of direct administration of DTX and CTX on treating TMZ resistant brain tumors, 36 mice transplanted with TMZ-resistant brain tumors were used in the experiments, divided into six groups, each group having six mice; details of dosage are noted in Table 7 below:
as §1

[3] = mouse, in vivo, iv
Source text: as §2, §1

[4] = 10 mg/kg IV + TMZ 10 mg/kg IP, twice per week
[5] = 20 mg/kg IV + TMZ 10 mg/kg IP, twice per week
[6] = PBS IV + TMZ 10 mg/kg IP, twice per week

SMILES | Median Survival Time (days after 1st injection) [1, 4] | Median Survival Time (days after implantation of tumor cells) [1, 4] | Median Survival Time (days after 1st injection) [1, 5] | Median Survival Time (days after implantation of tumor cells) [1, 5] | Survival of mice to the end of the testing period [2] | Toxicity of direct administration ([2]; dose of 5 mg/kg or higher) | Toxicity (body weight decrease, low survival rate) [2] | Median Survival Time (days after 1st injection) [1, 6] | Median Survival Time (days after implantation of tumor cells) [1, 6] | Median Survival Time (days after implantation of tumor cells) ([1]; Table 9: PBS + TMZ (10 mg/kg)) | Median Survival Time (days after implantation of tumor cells) ([1]; Table 10: PBS + TMZ (10 mg/kg)) | Signs of toxicity [3]
CO[C@H]1C(=O)[C@]2(C)[C@@H](OC)C[C@H]3OC[C@@]3(OC(C)=O)[C@H]2[C@H](OC(=O)c2ccccc2)[C@]2(O)C[C@H](OC(=O)[C@H](O)[C@@H](NC(=O)OC(C)(C)C)c3ccccc3)C(C)=C1C2(C)C [CTX, cabazitaxel] | 11 days | 15 days | 8 days | 12 days | all mice died before the end of the testing period | high toxicity | high toxicity | – | – | – | – | –
Cn1nnc2c(C(N)=O)ncn2c1=O [TMZ, temozolomide] | – | – | – | – | – | – | – | 23 days | 27 days | 27 [26.5] days | 27 [26.5] days | –
CC(=O)O[C@@]12CO[C@@H]1C[C@H](O)[C@@]1(C)C(=O)[C@H](O)C3=C(C)[C@@H](OC(=O)[C@H](O)[C@@H](NC(=O)OC(C)(C)C)c4ccccc4)C[C@@](O)([C@@H](OC(=O)c4ccccc4)[C@H]21)C3(C)C [DTX, docetaxel] | 15 days | 19 days | 11 days | 15 days | all mice died before the end of the testing period | – | high toxicity | – | – | – | – | immobility, interaction deficits, and more body weight loss

— patent publication US12274688B2, “Drug-loaded mesoporous silica nanoparticle for prevention and treatment of brain cancers or brain metastases” (NANO TARGETING & THERAPY BIOPHARMA INC, priority 2022, dated 2025)
